{
  "source": "patent US20120225417A1",
  "about": "“Methods, Compositions and Kits for the Evaluation and Preservation of Sperm” (I'Alliance Boviteq Inc., priority 2011, published 2012)",
  "assay_type_in_all_cases": "biochemical",
  "key": {"[1]": {"system": "3′-5′ cAMP-PDE activity in bovine spermatozoa", "assay": "3′-5′ cAMP-PDE assay with family-specific PDE inhibitors in bovine spermatozoa", "settings": "for Percentage of sensitive PDE activity, Cryo (B): cryopreserved bovine spermatozoa; for Percentage of sensitive PDE activity, Cryo (B) / Percentage of sensitive PDE activity, Fresh (A): Cil 10 μM, Rol 10 μM, Papa 400 nM", "experimental": "The semen was obtained from different Holstein bulls. The fresh ejaculated semen was kept in an insulated thermos flask, at 18° C., during transportation to the laboratory and processed within 3 hours after collection. The cryopreserved semen was obtained at the Centre d'Insémination […] du Québec (CIAQ) […]. The cryopreserved straws of semen were prepared according to CIAQ procedures. […] After cutting one end of the straw the semen was collected in a 15 ml falcon while cutting the other end. From this point fresh and cryopreserved semen were processed similarly. Approximately 50 μL of the semen was added to 5 mL of Talp-BSA medium in a 15 mL falcon tube to wash the spermatozoa. After centrifugation (280×g, 10 min, room temperature), the remaining pellet of approximately 100 μL was resuspended in Talp-BSA medium (500 μl for the fresh and 200 μl for two straws) to reach a concentration of 1×10^6 cells/10 μL. The samples were then vortex-agitated for 30 sec and kept on the ice until ready to run the assay. The concentration of sperm cells was measured according to hemacytometer method. The cAMP enzymatic assay (PDE assay) was conducted as previously described ([…]. et al., (2006). […] J. et al., (1979). Adv Cyclic Nucleotide Res 10, 69-92) with minor modifications. […] Measurements were also performed in the presence of PDE inhibitors: […] Cilostamide and Rolipram were purchased from Biomol. […] Each PDE assay was performed in triplicate for each experiment and each experiment was repeated at least three times. As described ([…]. et al., (2009). […] IBMX-sensitive PDE5 and PDE6 and IBMX-insensitive PDE9 activities are absent from these groups because cGMP is the specific substrate and then are not detected in the cAMP-PDE assay. […] J Dairy Sci 92, 3757-3765; […]., et al. (2007). Endocrinology 148, 1858-1867; Siuciak, J. A. et al., (2006). Neuropharmacology 51, 386-396)."}, "[2]": {"system": "3′-5′ cAMP-PDE activity in human seminal plasma", "assay": "3′-5′ cAMP-PDE assay with family-specific PDE inhibitors in human seminal plasma", "settings": "fresh human seminal plasma; Rolipram 10 μM, Papaverine 400 nM (FIG. 19)", "experimental": "A certain amount of complete ejaculate was kept to isolate spermatozoa from seminal plasma. This portion was centrifuged at 400×g during 10 minutes at room temperature to gently pull down spermatozoa. Supernatant was transferred and centrifuged again at 6 000×g at 4° C. during 20 minutes to pull down any remaining spermatozoa. Supernatant was then transferred and centrifuged at 6 000×g at 4° C. during 20 minutes to remove any remaining debris. SP samples were kept on ice until used for PDE assay and stored at -80° C. for further characterization. The cAMP enzymatic assay (PDE assay) was conducted as previously described ([…]. et al., (2006). BMC developmental biology 6, 47). […] J. et al., (1979). Adv Cyclic Nucleotide Res 10, 69-92) with minor modifications. […] Measurements were also performed in the presence of PDE inhibitors: […] Cilostamide and Rolipram were purchased from Biomol. […] Each PDE assay was performed in triplicate for each experiment and each experiment was repeated at least three times. As described ([…]. et al., (2009). […] IBMX-sensitive PDE5 and PDE6 and IBMX-insensitive PDE9 activities are absent from these groups because cGMP is the specific substrate and then are not detected in the cAMP-PDE assay. […] J Dairy Sci 92, 3757-3765; […]., et al. (2007). Endocrinology 148, 1858-1867; Siuciak, J. A. et al., (2006). Neuropharmacology 51, 386-396)."}, "[3]": {"system": "3′-5′ cAMP-PDE activity in bovine testis, caput, cauda and seminal vesicles homogenates", "assay": "3′-5′ cAMP-PDE assay in bovine testis, caput, cauda and seminal vesicles homogenates", "settings": "Rol 10 μM, Papa 400 nM (FIG. 3)", "experimental": "After thoroughly vortex-agitating for about one minute, samples were centrifuged at 10 000×g for 4 minutes at room temperature. Supernatant fluid was collected and diluted in different volumes of hypotonic buffer depending on the tissue. Testis, caput and cauda homogenates were diluted in 1 mL of hypotonic buffer while seminal vesicle homogenates were diluted in 2 mL of hypotonic buffer. Homogenates were kept on ice until subjected to PDE assay. The cAMP enzymatic assay (PDE assay) was conducted as previously described ([…]. et al., (2006). BMC developmental biology 6, 47). […] J. et al., (1979). Adv Cyclic Nucleotide Res 10, 69-92) with minor modifications. […] Measurements were also performed in the presence of PDE inhibitors: […] Cilostamide and Rolipram were purchased from Biomol. […] Each PDE assay was performed in triplicate for each experiment and each experiment was repeated at least three times. As described ([…]. et al., (2009). […] IBMX-sensitive PDE5 and PDE6 and IBMX-insensitive PDE9 activities are absent from these groups because cGMP is the specific substrate and then are not detected in the cAMP-PDE assay. […] J Dairy Sci 92, 3757-3765; […]., et al. (2007). Endocrinology 148, 1858-1867; Siuciak, J. A. et al., (2006). Neuropharmacology 51, 386-396)."}},
  "data": [
    {"smiles": "COc1ccc(Cc2nccc3cc(OC)c(OC)cc23)cc1OC", "note": "[Papaverine]", "values": [
      {"measurement": "Percentage of family specific sensitive PDE activity, 3 h Egg yolk", "setting": "[1]; bovine spermatozoa after 3 h in egg yolk based cryoprotectant at 18° C.", "result": 60, "unit": "%"},
      {"measurement": "Percentage of family specific sensitive PDE activity, 3 h Liquid semen", "setting": "[1]; bovine spermatozoa after 3 h in liquid semen extender at 18° C.", "result": 56, "unit": "%"},
      {"measurement": "Percentage of family specific sensitive PDE activity, 3 h 4° C.", "setting": "[1]; bovine spermatozoa after 3 h in seminal plasma at 4° C.", "result": 60, "unit": "%"},
      {"measurement": "Percentage of family specific sensitive PDE activity, 3 h 18° C.", "setting": "[1]; bovine spermatozoa after 3 h in seminal plasma at 18° C.", "result": 59, "unit": "%"},
      {"measurement": "Percentage of family specific sensitive PDE activity, Fresh", "setting": "[1]; bovine spermatozoa rapidly after ejaculation (0 h)", "result": 57, "unit": "%"},
      {"measurement": "Percentage of total PDE activity sensitive to the inhibitor", "setting": "[1]; bovine spermatozoa, 1 μM cAMP, IBMX 1 mM, cilostamide 10 μM, rolipram 10 μM, papaverine 400 nM (FIG. 12B)", "result": 55, "unit": "%"},
      {"measurement": "Percentage of sensitive PDE activity, Cryo (B)", "setting": "[1]; IBMX 1 mM", "result": 50, "unit": "%"},
      {"measurement": "Percentage of sensitive PDE activity, Cryo (B)", "setting": "[1]; IBMX 1 mM, listed as papaverine", "result": 49.8, "unit": "%"},
      {"measurement": "Share of 3′-5′ cAMP-PDE activity inhibited (papaverine-sensitive)", "setting": "[1]; freshly ejaculated bovine spermatozoa, papaverine 400 nM (FIG. 21)", "result": "more than 50%"},
      {"measurement": "Percentage of sensitive PDE activity, Fresh (A)", "setting": "[1]; freshly ejaculated bovine spermatozoa, IBMX 1 mM", "result": 57, "unit": "%"},
      {"measurement": "Percentage of sensitive PDE activity, Fresh (A)", "setting": "[1]; freshly ejaculated bovine spermatozoa, IBMX 1 mM, listed as papaverine", "result": 57.1, "unit": "%"},
      {"measurement": "Inhibitor-sensitive PDE activity in human seminal plasma (in words)", "setting": "[2]", "result": "low percentage"},
      {"measurement": "Inhibitor-sensitive PDE activity in bovine male reproductive tissues (in words)", "setting": "[3]", "result": "low percentage"}
    ]}
  ]
}
